We go through one compound from ChEMBL document CHEMBL1138491, “An innovative method to study target protein-drug interactions by mass spectrometry” (J Med Chem, 2009).

The target in the test is T1, Peroxisome proliferator-activated receptor alpha (Homo sapiens, UniProt Q07869).
T1 sequence (Q07869 whole entry): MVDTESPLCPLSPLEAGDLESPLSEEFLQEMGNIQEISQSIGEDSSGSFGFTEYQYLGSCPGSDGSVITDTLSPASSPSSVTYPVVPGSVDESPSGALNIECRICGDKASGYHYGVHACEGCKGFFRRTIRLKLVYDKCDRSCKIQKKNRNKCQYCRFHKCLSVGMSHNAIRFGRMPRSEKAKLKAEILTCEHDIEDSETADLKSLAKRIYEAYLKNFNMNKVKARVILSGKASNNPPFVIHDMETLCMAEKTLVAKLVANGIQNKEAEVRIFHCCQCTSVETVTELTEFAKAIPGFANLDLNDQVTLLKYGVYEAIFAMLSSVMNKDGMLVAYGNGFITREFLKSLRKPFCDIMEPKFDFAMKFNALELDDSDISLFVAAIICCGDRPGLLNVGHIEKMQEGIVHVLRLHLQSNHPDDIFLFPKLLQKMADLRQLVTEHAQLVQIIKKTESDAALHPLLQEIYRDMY
Kind of test: Inhibition of PPARalpha receptor.

What is called IC50 is the point on the concentration scale where inhibition reaches its midpoint. Read a low IC50 as inhibition by little substance.

Turning to `CCC(=O)NC[C@H](Cc1ccc(OCCc2nc(-c3ccccc3)oc2C)cc1)N/C(C)=C\C(=O)c1ccc(C(F)(F)F)cc1`, the IC50 is 240 nM.
